64 molecules from a melting point compilation (Tetko et al.; mined from patent text by program, amines drawn as free bases though some values may be those of a salt) can be followed below.

What is called melting point is the temperature, or range, at which the solid turns liquid.

`Cc1ccc2c(c1)-n1cc(C(=O)O)nc1CO2` displayed a melting point of 281 to 285 °C.

As for `OC(CNCCc1cc(Br)sc1Br)c1ccccc1` (centres undefined), the melting point was 94 °C.

`OCCC[C@H]1OC[C@H](c2ccc(Cl)c3ccccc32)CO1` registered a melting point of 127 to 129 °C.

As for `CC(C)(C)c1ccccc1N1CCN(C(=O)Cc2nnn[nH]2)CC1`, the melting point lay within 236 to 237 °C.

As for `CN1CC(CO)OC1=C(C#N)C=C1Nc2ccccc2C1=O` (centres undefined), the melting point is 236 to 238 °C.

The molecule `CCc1scc2c1CN(S(=O)(=O)c1ccc(C)cc1)C2` showed a melting point of 117 to 120 °C.

In the case of `CCOC(=O)C1(C)CCc2ccccc2O1` (centres undefined), the melting point lay in the range of 79 to 80 °C.

As for `CCOC(=O)c1cc2cc(CC)ccc2[nH]1`, the melting point stood at 94 °C.

`O=C(Nc1nnn[nH]1)c1cccc([N+](=O)[O-])c1` had a melting point of 276 °C.

`CN(Cc1ccc(NC(=O)C2=Cc3cc(-c4ccc5c(c4)OCCCO5)ccc3S(=O)(=O)CC2)cc1)C1CCOCC1` showed a melting point of 242 to 245 °C.

`Cc1c(Br)ccc(C=NO)c1Cl`: the melting point lay within 77 to 78 °C.

In the case of `CC(Oc1ccc(Cl)cc1Cl)c1nnc(N)s1` (centres undefined), the melting point fell in the range of 119 to 123 °C.

As for `COc1cc(I)c(C(C)=NOCc2ccc([N+](=O)[O-])cc2)cc1O`, the melting point was in the range of 121 to 127 °C.

With `CCOC(=O)CCC(=O)c1ccc(-c2ccccc2F)cc1`, the melting point lay within 56 to 58 °C.

Molecule `CN1C(=O)CC[C@]2(C)c3ccc(-c4nc5ccccc5s4)cc3CC[C@@H]12` showed a melting point of 207 to 212 °C.

`CCn1cc(C(=O)O)c(=O)cc1-c1c(Cl)cccc1Cl`: the melting point was in the range of 200 to 201 °C.

In the case of `CCOC(=O)CN1CCN(CCNc2ncc3ncnc(Nc4ccc(F)c(Cl)c4)c3n2)CC1`, the melting point lay within 128 to 129 °C.

For `CN(C)CCCC(C(=O)O)c1ccccc1-c1ccccc1` (centres undefined), the melting point was 192 to 194 °C.

In turn, `CCOC(=O)c1ccc(-c2ccc(-c3ccccc3OC)c(-c3ccc4c(c3)C(C)(C)CCC4(C)C)c2)cc1` had a melting point of 133 to 136 °C.

Molecule `Cc1c(C)c2c(c(C)c1O)C(c1ccc(C(C)C)cc1)C1(CCN(C)CC1)O2` (centres undefined) displayed a melting point of 114 to 117 °C.

For `c1ccc(N(Cc2cccc3ccccc23)c2ccccc2)cc1`, the melting point lay within 170 to 172 °C.

`CCOC(=O)C[C@@H](CCCc1ccncc1)C(=O)N[C@H]1Cc2cn(c3ccccc23)CCOCCNC1=O` showed a melting point of 203 to 205 °C.

The molecule `O=C(c1ccc(CBr)cc1)c1ccc(CBr)cc1` returned a melting point of 118 to 119 °C.

Molecule `CC(C)OC1OC(=O)CC(C)(C)C1OS(C)(=O)=O` (centres undefined) displayed a melting point of 75 °C.

Take `CCc1cc(C(C)=O)c(O)c(C(=O)Nc2nnn[nH]2)c1`: the melting point lay in the range of 257 to 258 °C.

For `O=C(O)c1ccc2c(c1)S(=O)(=O)c1ccccc1C2=O`, the melting point was 285 to 287 °C.

`O=C(O)CCCS(=O)(=O)NC(=O)CCC(F)(F)C(F)(F)C(F)(F)C(F)(F)C(F)(F)C(F)(F)F` had a melting point of 175 to 180 °C.

For `CCCCOC(=O)c1ccc2c(c1)C(=O)NC(C(Cl)(Cl)Cl)O2` (centres undefined), the melting point fell in the range of 134 to 136 °C.

`CS(=O)(=O)C(=C1CN(C(c2ccccc2)c2ccccc2)C1)c1cccc(C(N)=O)c1` registered a melting point of 140 °C.

Molecule `O=C(O)c1ccc(CCCc2ccc(Br)cc2OCc2ccccc2)cc1` had a melting point of 141 to 142 °C.

`Cc1c(NC(=O)c2ccc(-c3ccc(F)cc3)cc2F)ccc2cc(CN3CCCCCC3)cnc12` came in with a melting point of 159 to 160 °C.

`COc1nc2cc(F)c(Cl)c(N)c2nc1OC` had a melting point of 199 to 200 °C.

On to `Fc1ccc(CN2CCC(Nc3ccc(C(F)(F)F)nn3)CC2)cc1`, for which the melting point was 163 to 165 °C.

`COc1ccc2c(c1OC)C(=O)c1c-2c(N2CCNCC2)nc2ccc(Cl)cc12` gave a melting point of 168 to 169 °C.

Turning to `CCOP(=O)(Cc1ccc(NC(=O)/C=C/c2cn(Cc3ccccc3)nc2-c2ccc(F)cc2)cc1)OCC`, the melting point is 199 to 200 °C.

With `CCn1cc2c(n1)c(=O)[nH]c1cc(OCc3ccccc3)ccc12`, the melting point was 240 to 241 °C.

As to `Nc1cccc(CN2CCC(OC(=O)c3ccccc3)CC2)c1`, the melting point was in the range of 95 to 97 °C.

`Cc1ccc(F)cc1C(=O)Nc1ccc(C(=O)N2Cc3cccn3-c3ncccc32)cn1` registered a melting point of 226 to 234 °C.

`COC(=O)c1cncn1C1CCCc2ccccc21` (centres undefined) yielded a melting point of 63 °C.

The molecule `COC(=O)CCCC#Cc1cc(Cl)ccc1NS(=O)(=O)c1cccc(OC)c1` registered a melting point of 71 to 76 °C.

The molecule `CSc1nc(Cl)ncc1C` came in with a melting point of 73 to 76 °C.

In turn, `COc1cc(Nc2nnc(Cc3ccncc3)c3ccccc23)cc(OC)c1OC` displayed a melting point of 110 to 111 °C.

`COc1cc(SC2SCC(O)C(O)C2O)cc(OC)c1OC` (centres undefined): the melting point was found to be 166 °C.

Molecule `COC(=O)c1ccc(Cl)c(N)c1Cl` gave a melting point of 50 to 52 °C.

The molecule `Clc1ccc2c(Nc3ccc(N4CCOCC4)c(CN4CCCC4)c3)ccnc2c1` displayed a melting point of 187 to 188 °C.

Take `COc1ccc2oc3ccc([N+](=O)[O-])cc3c2c1C(=O)Nc1cccnc1`: the melting point was in the range of 263 to 266 °C.

With `CCOC(=O)C(C)c1ccc(CC2CCCCC2=NO)cc1` (centres undefined), the melting point lay in the range of 102 to 104 °C.

For the molecule `COc1cc(-c2nc3ccccc3n2Cc2ccccc2Br)cc(OC)c1OC`, the melting point was 152 °C.

Turning to `CC(C)c1cccc(C(C)C)c1NC(=O)N(Cc1ccccc1)CC(c1ccccc1)c1ccccc1`, the melting point was 153 to 155 °C.

With `Fc1ccc(C2NCCc3c2[nH]c2ccccc32)cc1F` (centres undefined), the melting point worked out at 151 °C.

The molecule `Cc1ccc(-c2ccccc2)cc1Cn1c(C)nn(C)c1=O` gave a melting point of 139 °C.

On to `CCCCCS(=O)(=O)NC(=O)CCc1cc(OCCCC)nn1Cc1ccc(C(F)(F)F)cc1Cl`, for which the melting point fell in the range of 131 to 133 °C.

The molecule `COc1cc(Nc2c(C#N)cnc3cc(-c4ccc(CN5CCC[C@@H]5C(N)=O)cc4)ccc23)c(Cl)cc1Cl` gave a melting point of 180 to 182 °C.

For the molecule `O=C(O)c1c(OCCF)cccc1OCCF`, the melting point is 57 to 58 °C.

In turn, `CC(C)n1nc(-c2c(-c3ccccc3)nn3ccc(C(=O)NCCN(C)C)cc23)ccc1=O` showed a melting point of 157 to 158 °C.

As for `Cc1cc(C)n(C(=O)C(Cc2ccccc2)NS(=O)(=O)c2ccc(Cl)cc2)n1` (centres undefined), the melting point is 137 to 138 °C.

Regarding `CC(C)n1nc(-c2cnc(NCc3ccccn3)nc2-c2ccccc2)ccc1=O`, the melting point was 143 to 144 °C.

Molecule `Nc1c(S(=O)(=O)C(F)(F)F)c(-c2ncon2)nn1-c1c(Cl)cc(C(F)(F)F)cc1Cl` showed a melting point of 205 to 208 °C.

The molecule `OC(CNC1=NCCN1)c1ccc(Cl)cc1` (centres undefined) displayed a melting point of 156 to 158 °C.

In turn, `O=C1COc2cc(Sc3ccc(O)c(O)c3)ccc2N1` came in with a melting point of 236 to 238 °C.

`Cc1cc(O)c(Oc2ccccc2C#N)cc1Br` showed a melting point of 99 to 101 °C.

Molecule `COC(=O)c1cc(C(C)=O)c(OCc2ccccc2)cc1OCc1ccccc1` gave a melting point of 114 to 115 °C.

In the case of `CC(=O)c1ccc(-c2nccn2C)cc1`, the melting point was 88 to 93 °C.

As to `CCc1c(C)sc2nc(C(C)C)c(CO)c(-c3ccc(F)cc3)c12`, the melting point lay in the range of 188 to 191 °C.
